The results in this text go back to paper PMC4705544, “CPUY201112, a novel synthetic small-molecule compound and inhibitor of heat shock protein Hsp90, induces p53-mediated apoptosis in MCF-7 cells” (Scientific Reports, 2016).

In this assay the target is T1, Hsp90α (Homo sapiens, UniProt P07900).
T1 construct: gene HSP90AA1; full-length Hsp90
The assay can be described thus: BLI (ForteBio Octet Red […]); also FP competition with FITC-geldanamycin (IC50 […]) and HTRF ATPase inhibition. It is filed as binding.

The structures appear in SMILES notation.

For orientation: Kd means a measure of binding affinity in units of concentration. Low readings indicate tighter binding, high ones weaker binding.

`CCOc1ncc2c(n1)CCN(C(=O)c1cc(C(C)C)c(O)cc1O)C2` [CPUY201112] displayed a Kd of 27 ± 5 nM.
